Patent publication US11780893B2, “Kv1.3 blockers” (Zealand Pharma A/S, priority 2019, dated 2023)
Bridge positions count the residues as written; N and C are the ends. Square brackets hold non-standard residues; d marks the D form. Peptide text beside a SMILES is read from it. Nle = CCCC[C@H](N)C(=O)O

biological target: Rat whole blood (Rattus norvegicus, UniProt P15384); experiment: not given; settings: not given
Sequence (P15384 whole entry): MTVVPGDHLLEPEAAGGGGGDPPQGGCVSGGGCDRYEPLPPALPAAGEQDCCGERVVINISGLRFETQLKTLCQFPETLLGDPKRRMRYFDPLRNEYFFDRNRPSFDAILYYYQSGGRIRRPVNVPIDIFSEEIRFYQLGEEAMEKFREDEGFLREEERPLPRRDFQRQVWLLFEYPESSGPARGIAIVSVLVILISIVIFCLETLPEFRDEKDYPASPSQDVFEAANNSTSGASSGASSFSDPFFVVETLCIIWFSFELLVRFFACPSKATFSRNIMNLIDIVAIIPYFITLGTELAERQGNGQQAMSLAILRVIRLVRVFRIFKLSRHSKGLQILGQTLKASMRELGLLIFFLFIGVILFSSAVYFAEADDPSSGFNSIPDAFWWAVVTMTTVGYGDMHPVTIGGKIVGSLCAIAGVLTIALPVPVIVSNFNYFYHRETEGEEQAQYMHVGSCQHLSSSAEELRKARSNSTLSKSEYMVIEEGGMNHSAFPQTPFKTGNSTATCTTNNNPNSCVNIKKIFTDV

Row | Compound | IC50 [nM]
1 | CCCC[C@H](NC(=O)[C@H](CC(=O)O)NC(=O)[C@H](CCCC)NC(=O)[C@@H](N)CO)C(=O)N[C@@H](CCCNC(=N)N)C(=O)N[C@H]1CSSC[C@@H]2NC(=O)[C@H](CCCCN)NC(=O)CNC(=O)[C@H](Cc3ccccc3)NC(=O)[C@H]([C@@H](C)CC)NC(=O)[C@H](CO)NC(=O)CNC(=O)[C@H]([C@@H](C)CC)NC(=O)[C@H](C)NC(=O)[C@H](CCCCN)NC(=O)[C@H](CC(C)C)NC(=O)[C@@H]3CSSC[C@@H](C(=O)N[C@@H](Cc4ccc(O)cc4)C(=O)N4CCC[C@H]4C(=O)N[C@@H](CCCNC(=N)N)C(N)=O)NC(=O)[C@H](CCCNC(=N)N)NC(=O)[C@H](CSSC[C@H](NC(=O)[C@H](CCC(=O)O)NC(=O)[C@H](C(C)C)NC(=O)[C@H](CO)NC(=O)[C@H](C)NC(=O)[C@H](CO)NC1=O)C(=O)N[C@@H](CCCCN)C(=O)N[C@@H](CCC(N)=O)C(=O)N[C@@H](CCCCN)C(=O)N3)NC(=O)[C@H](CCCCN)NC(=O)[C@H](CCCCN)NC(=O)[C@H](CC(N)=O)NC(=O)[C@H](CCSC)NC2=O [Compound 75] | ≤ 1

biological target: T1, human Kv1.3 voltage-gated K+ channel (Homo sapiens, UniProt P22001); experiment: cell-based; settings: inhibition of thallium flux, CHO-DUKX cells with human Kv1.3; read-out: IC50
T1 construct: host or cells: CHO-DUKX
T1 sequence (P22001 whole entry): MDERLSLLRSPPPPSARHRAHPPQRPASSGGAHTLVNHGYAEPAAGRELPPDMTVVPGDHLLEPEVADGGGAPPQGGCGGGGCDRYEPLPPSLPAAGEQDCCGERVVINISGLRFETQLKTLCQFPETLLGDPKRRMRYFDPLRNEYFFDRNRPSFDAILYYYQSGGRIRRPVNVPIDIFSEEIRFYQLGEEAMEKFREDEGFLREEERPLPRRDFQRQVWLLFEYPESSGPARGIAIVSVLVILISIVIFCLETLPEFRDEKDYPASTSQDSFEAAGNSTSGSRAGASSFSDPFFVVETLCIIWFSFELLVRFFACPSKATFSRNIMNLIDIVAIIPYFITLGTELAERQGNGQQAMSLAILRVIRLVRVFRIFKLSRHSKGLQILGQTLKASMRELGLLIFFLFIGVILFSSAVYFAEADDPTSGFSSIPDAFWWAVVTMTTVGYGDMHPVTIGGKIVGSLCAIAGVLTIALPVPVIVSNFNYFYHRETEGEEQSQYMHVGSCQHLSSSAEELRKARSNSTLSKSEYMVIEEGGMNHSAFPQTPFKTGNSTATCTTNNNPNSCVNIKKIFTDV

Row | Compound | IC50 [nM]
2 | CCCC[C@H](NC(=O)[C@@H]1CCCN1)C(=O)N[C@@H](CCC(=O)O)C(=O)N[C@@H](CCCC)C(=O)N[C@@H](CCCNC(=N)N)C(=O)N[C@H]1CSSC[C@@H]2NC(=O)[C@H](CCCCN)NC(=O)CNC(=O)[C@H](Cc3ccccc3)NC(=O)[C@H]([C@@H](C)CC)NC(=O)[C@H](CO)NC(=O)CNC(=O)[C@H]([C@@H](C)CC)NC(=O)[C@H](C)NC(=O)[C@H](C)NC(=O)[C@H](CC(C)C)NC(=O)[C@@H]3CSSC[C@@H](C(=O)N[C@@H](Cc4ccc(O)cc4)C(=O)N4CCC[C@H]4C(=O)N[C@@H](CCCNC(=N)N)C(=O)O)NC(=O)[C@H](CCCCN)NC(=O)[C@H](CSSC[C@H](NC(=O)[C@H](CCC(=O)O)NC(=O)[C@H](CCC(N)=O)NC(=O)[C@H](CO)NC(=O)[C@H](C)NC(=O)[C@H](CO)NC1=O)C(=O)N[C@@H](CCCCN)C(=O)N[C@@H](CCC(N)=O)C(=O)N[C@@H](CCCCN)C(=O)N3)NC(=O)[C@H](CCCCN)NC(=O)[C@H](CCCCN)NC(=O)[C@H](CC(N)=O)NC(=O)[C@H](CCCC)NC2=O [Compound 139] (H-P[Nle]E[Nle]RCSASQECKQKCLAAIGSIFGKC[Nle]NKKCKCYPR-OH; disulfide 6-27, 12-32, 16-34) | 0.453
3 | CCCC[C@H](NC(=O)[C@@H]1CCCN1)C(=O)N[C@@H](CCC(=O)O)C(=O)N[C@@H](CCCC)C(=O)N[C@@H](CCCNC(=N)N)C(=O)N[C@H]1CSSC[C@@H]2NC(=O)[C@H](CCCCN)NC(=O)CNC(=O)[C@H](Cc3ccccc3)NC(=O)[C@H]([C@@H](C)CC)NC(=O)[C@H](CO)NC(=O)CNC(=O)[C@H]([C@@H](C)CC)NC(=O)[C@H](C)NC(=O)[C@H](C)NC(=O)[C@H](CC(C)C)NC(=O)[C@@H]3CSSC[C@@H](C(=O)N[C@@H](Cc4ccc(O)cc4)C(=O)N4CCC[C@H]4C(=O)N[C@@H](CCCNC(=N)N)C(=O)O)NC(=O)[C@H](CCCCN)NC(=O)[C@H](CSSC[C@H](NC(=O)[C@H](CCC(=O)O)NC(=O)[C@H](C(C)C)NC(=O)[C@H](CO)NC(=O)[C@H](C)NC(=O)[C@H](CO)NC1=O)C(=O)N[C@@H](CC(C)C)C(=O)N[C@@H](CCC(N)=O)C(=O)N[C@@H](CCCCN)C(=O)N3)NC(=O)[C@H](CCCCN)NC(=O)[C@H](CCCCN)NC(=O)[C@H](CC(N)=O)NC(=O)[C@H](CCCC)NC2=O [Compound 140] (H-P[Nle]E[Nle]RCSASVECLQKCLAAIGSIFGKC[Nle]NKKCKCYPR-OH; disulfide 6-27, 12-32, 16-34) | 3.57
4 | CCCC[C@H](NC(=O)[C@@H]1CCCN1)C(=O)N[C@@H](CCC(=O)O)C(=O)N[C@@H](CCCC)C(=O)N[C@@H](CCCNC(=N)N)C(=O)N[C@H]1CSSC[C@@H]2NC(=O)[C@H](CCCCN)NC(=O)CNC(=O)[C@H](Cc3ccccc3)NC(=O)[C@H]([C@@H](C)CC)NC(=O)[C@H](CO)NC(=O)CNC(=O)[C@H]([C@@H](C)CC)NC(=O)[C@H](C)NC(=O)[C@H](C)NC(=O)[C@H](CC(C)C)NC(=O)[C@@H]3CSSC[C@@H](C(=O)N[C@@H](Cc4ccc(O)cc4)C(=O)N4CCC[C@H]4C(=O)N[C@@H](CCCNC(=N)N)C(=O)O)NC(=O)[C@H](CCCCN)NC(=O)[C@H](CSSC[C@H](NC(=O)[C@H](CCC(=O)O)NC(=O)[C@H](C(C)C)NC(=O)[C@H](CO)NC(=O)[C@H](C)NC(=O)[C@H](CO)NC1=O)C(=O)N[C@@H](CCCCN)C(=O)N[C@@H](CCC(N)=O)C(=O)N1CCC[C@H]1C(=O)N3)NC(=O)[C@H](CCCCN)NC(=O)[C@H](CCCCN)NC(=O)[C@H](CC(N)=O)NC(=O)[C@H](CCCC)NC2=O [Compound 141] (H-P[Nle]E[Nle]RCSASVECKQPCLAAIGSIFGKC[Nle]NKKCKCYPR-OH; disulfide 6-27, 12-32, 16-34) | 1.07
5 | CCCC[C@H](NC(=O)[C@@H]1CCCN1)C(=O)N[C@@H](CCC(=O)O)C(=O)N[C@@H](CCCC)C(=O)N[C@@H](CCCNC(=N)N)C(=O)N[C@H]1CSSC[C@@H]2NC(=O)[C@H](CCCCN)NC(=O)CNC(=O)[C@H](Cc3ccccc3)NC(=O)[C@H]([C@@H](C)CC)NC(=O)[C@H](CO)NC(=O)CNC(=O)[C@H]([C@@H](C)CC)NC(=O)[C@H](C)NC(=O)[C@H](C)NC(=O)[C@H](CC(C)C)NC(=O)[C@@H]3CSSC[C@@H](C(=O)N[C@@H](Cc4ccc(O)cc4)C(=O)N4CCC[C@H]4C(=O)N[C@@H](CCCNC(=N)N)C(=O)O)NC(=O)[C@H](CCCCN)NC(=O)[C@H](CSSC[C@H](NC(=O)[C@H](CCC(=O)O)NC(=O)[C@H](C(C)C)NC(=O)[C@H](CO)NC(=O)[C@H](C)NC(=O)[C@H](CCC(=O)O)NC1=O)C(=O)N[C@@H](CCCCN)C(=O)N[C@@H](CCC(N)=O)C(=O)N[C@@H](CCCCN)C(=O)N3)NC(=O)[C@H](CCCCN)NC(=O)[C@H](CCCCN)NC(=O)[C@H](CC(N)=O)NC(=O)[C@H](CCCC)NC2=O [Compound 142] (H-P[Nle]E[Nle]RCEASVECKQKCLAAIGSIFGKC[Nle]NKKCKCYPR-OH; disulfide 6-27, 12-32, 16-34) | 1.5
6 | CCCC[C@H](NC(=O)[C@@H]1CCCN1)C(=O)N[C@@H](CCC(=O)O)C(=O)N[C@@H](CCCC)C(=O)N[C@@H](CCCNC(=N)N)C(=O)N[C@H]1CSSC[C@@H]2NC(=O)[C@H](CCCCN)NC(=O)CNC(=O)[C@H](Cc3ccccc3)NC(=O)[C@H]([C@@H](C)CC)NC(=O)[C@H](CO)NC(=O)CNC(=O)[C@H]([C@@H](C)CC)NC(=O)[C@H](C)NC(=O)[C@H](C)NC(=O)[C@H](CC(C)C)NC(=O)[C@@H]3CSSC[C@@H](C(=O)N[C@@H](Cc4ccc(O)cc4)C(=O)N4CCC[C@H]4C(=O)N[C@@H](CCCNC(=N)N)C(=O)O)NC(=O)[C@H](CCCCN)NC(=O)[C@H](CSSC[C@H](NC(=O)[C@H](CCC(=O)O)NC(=O)[C@H](C(C)C)NC(=O)[C@H](CO)NC(=O)[C@H](C)NC(=O)[C@H](Cc4ccccc4)NC1=O)C(=O)N[C@@H](CCCCN)C(=O)N[C@@H](CCC(N)=O)C(=O)N[C@@H](CCCCN)C(=O)N3)NC(=O)[C@H](CCCCN)NC(=O)[C@H](CCCCN)NC(=O)[C@H](CC(N)=O)NC(=O)[C@H](CCCC)NC2=O [Compound 143] (H-P[Nle]E[Nle]RCFASVECKQKCLAAIGSIFGKC[Nle]NKKCKCYPR-OH; disulfide 6-27, 12-32, 16-34) | 0.316
7 | CCCC[C@H](NC(=O)[C@@H]1CCCN1)C(=O)N[C@@H](CCC(=O)O)C(=O)N[C@@H](CCCC)C(=O)N[C@@H](CCCNC(=N)N)C(=O)N[C@H]1CSSC[C@@H]2NC(=O)[C@H](CCCCN)NC(=O)CNC(=O)[C@H](Cc3ccccc3)NC(=O)[C@H]([C@@H](C)CC)NC(=O)[C@H](CO)NC(=O)CNC(=O)[C@H]([C@@H](C)CC)NC(=O)[C@H](C)NC(=O)[C@H](C)NC(=O)[C@H](CC(C)C)NC(=O)[C@@H]3CSSC[C@@H](C(=O)N[C@@H](Cc4ccc(O)cc4)C(=O)N4CCC[C@H]4C(=O)N[C@@H](CCCNC(=N)N)C(=O)O)NC(=O)[C@H](CCCCN)NC(=O)[C@H](CSSC[C@H](NC(=O)[C@H](CCC(=O)O)NC(=O)[C@H](C(C)C)NC(=O)[C@H](CO)NC(=O)[C@H](Cc4ccc(O)cc4)NC(=O)[C@H](CO)NC1=O)C(=O)N[C@@H](CCCCN)C(=O)N[C@@H](CCC(N)=O)C(=O)N[C@@H](CCCCN)C(=O)N3)NC(=O)[C@H](CCCCN)NC(=O)[C@H](CCCCN)NC(=O)[C@H](CC(N)=O)NC(=O)[C@H](CCCC)NC2=O [Compound 144] (H-P[Nle]E[Nle]RCSYSVECKQKCLAAIGSIFGKC[Nle]NKKCKCYPR-OH; disulfide 6-27, 12-32, 16-34) | 0.739
8 | CCCC[C@H](NC(=O)[C@@H]1CCCN1)C(=O)N[C@@H](CCC(=O)O)C(=O)N[C@@H](CCCC)C(=O)N[C@@H](CCCNC(=N)N)C(=O)N[C@H]1CSSC[C@@H]2NC(=O)[C@H](CCCCN)NC(=O)CNC(=O)[C@H](Cc3ccccc3)NC(=O)[C@H]([C@@H](C)CC)NC(=O)[C@H](CO)NC(=O)CNC(=O)[C@H]([C@@H](C)CC)NC(=O)[C@H](C)NC(=O)[C@H](C)NC(=O)[C@H](CC(C)C)NC(=O)[C@@H]3CSSC[C@@H](C(=O)N[C@@H](Cc4ccc(O)cc4)C(=O)N4CCC[C@H]4C(=O)N[C@@H](CCCNC(=N)N)C(=O)O)NC(=O)[C@H](CCCCN)NC(=O)[C@H](CSSC[C@H](NC(=O)[C@H](CCC(=O)O)NC(=O)[C@H](C(C)C)NC(=O)[C@H](Cc4ccccc4)NC(=O)[C@H](C)NC(=O)[C@H](CO)NC1=O)C(=O)N[C@@H](CCCCN)C(=O)N[C@@H](CCC(N)=O)C(=O)N[C@@H](CCCCN)C(=O)N3)NC(=O)[C@H](CCCCN)NC(=O)[C@H](CCCCN)NC(=O)[C@H](CC(N)=O)NC(=O)[C@H](CCCC)NC2=O [Compound 145] (H-P[Nle]E[Nle]RCSAFVECKQKCLAAIGSIFGKC[Nle]NKKCKCYPR-OH; disulfide 6-27, 12-32, 16-34) | 8.26
9 | H-NMDMRCSASVECKQKCLKAIGSIFGKCMNKKCKCYPRHRRK-NH2 (disulfide 6-27, 12-32, 16-34) [Compound 24] | 0.073
